Values of other authors as cited in PubChem BioAssay AID1259409 (Chemical Carcinogenesis Research Information System (CCRIS), 2018).

Tested on: rodent chemically induced tumor inhibition, incidence and multiplicity
Assay: CCRIS tumor inhibitor studies

## CC(=O)C1CC2CC1CC2N=C=S (stereo not given)
Carcinogen: 7,12-DIMETHYLBENZ[A]ANTHRACENE, 57-97-6, Dose [Inhibitor]: 0, 100 UMOL/D IN 0.5 ML EMULPHOR EL-620 FOR 5 CONSECUTIVE DAYS BEGINNING AT 47 D OF AGE (STUDY DURATION: 155 D), Route [Inhibitor]: GAVAGE, Species: RAT, Strain/Sex: SPRAGUE-DAWLEY/FEMALE, Target Tissue: Type of Lesion: MAMMARY GLAND: TUMOR, Dose [Carcinogen]: 8 MG IN 1 ML SESAME OIL ONCE AT 50 D OF AGE, Promoter: NONE USED
  tumour outcome (control, treated, inhibition, significance): 17/25 (68%), 8/20 (40%), 41%, not significant

## CCCCCc1ccccc1
Carcinogen: 4-(METHYLNITROSAMINO)-1-(3-PYRIDYL)-1-BUTANONE, 64091-91-4, Dose [Inhibitor]: 0, 25 UMOL IN 0.1 ML CORN OIL ONCE 2 HR PRIOR TO CARCINOGEN DOSE (STUDY DURATION: 16 WK), Route [Inhibitor]: GAVAGE, Species: MOUSE, Strain/Sex: STRAIN-A/FEMALE, Target Tissue: Type of Lesion: LUNG: TUMOR, Dose [Carcinogen]: 10 UMOL IN 0.1 ML SALINE ONCE, Promoter: NONE USED
  tumour outcome (control, treated, inhibition, significance): 100%, 95%, 5%, not significant

## CC1(S(=O)(=O)O)CC(=O)c2ccccc2C1=O (stereo not given)
Carcinogen: 1,2-DIMETHYLHYDRAZINE, 540-73-8, Dose [Inhibitor]: 0, 20 MG/KG 3/WK FOR 24 WK BEGINNING FIRST WK OF CARCINOGEN TREATMENT (STUDY DURATION: 28 WK), Route [Inhibitor]: GAVAGE, Species: MOUSE, Strain/Sex: ICR/FEMALE, Target Tissue: Type of Lesion: COLON: TUMOR, Dose [Carcinogen]: 20 MG/KG 1/WK FOR 20 WK, Promoter: NONE USED
  tumour outcome (control, treated, inhibition, significance): 9/13 (69%), 4/13 (31%), 55%, p<0.05
Carcinogen: 1,2-DIMETHYLHYDRAZINE, 540-73-8, Dose [Inhibitor]: 0, 20 MG/KG 3/WK FOR 28 WK BEGINNING FIRST WK OF CARCINOGEN TREATMENT (STUDY DURATION: 28 WK), Route [Inhibitor]: GAVAGE, Species: MOUSE, Strain/Sex: ICR/FEMALE, Target Tissue: Type of Lesion: COLON: TUMOR, Dose [Carcinogen]: 20 MG/KG 1/WK FOR 20 WK, Promoter: NONE USED
  tumour outcome (control, treated, inhibition, significance): 13/13 (100%), 8/13 (62%), 38%, p<0.05
Carcinogen: 1,2-DIMETHYLHYDRAZINE, 540-73-8, Dose [Inhibitor]: 0, 40 MG/KG 3/WK FOR 24 WK BEGINNING FIRST WK OF CARCINOGEN TREATMENT (STUDY DURATION: 28 WK), Route [Inhibitor]: GAVAGE, Species: MOUSE, Strain/Sex: ICR/FEMALE, Target Tissue: Type of Lesion: COLON: TUMOR, Dose [Carcinogen]: 20 MG/KG 1/WK FOR 20 WK, Promoter: NONE USED
  tumour outcome (control, treated, inhibition, significance): 9/13 (69%), 4/13 (31%), 55%, p<0.05
Carcinogen: 1,2-DIMETHYLHYDRAZINE, 540-73-8, Dose [Inhibitor]: 0, 40 MG/KG 3/WK FOR 28 WK BEGINNING FIRST WK OF CARCINOGEN TREATMENT (STUDY DURATION: 28 WK), Route [Inhibitor]: GAVAGE, Species: MOUSE, Strain/Sex: ICR/FEMALE, Target Tissue: Type of Lesion: COLON: TUMOR, Dose [Carcinogen]: 20 MG/KG 1/WK FOR 20 WK, Promoter: NONE USED
  tumour outcome (control, treated, inhibition, significance): 13/13 (100%), 8/13 (62%), 38%, p<0.05

## Oc1ccc(/C=C/c2cc(O)cc(O)c2)cc1
Carcinogen: Diethylnitrosamine, 55-18-5, Dose [Inhibitor]: 0, 50, 100, 300 mg/kg bw for 20 wk, Dose [Inhibitor]: 0, 50, 100, 300 mg/kg bw for 20 wk, Route [Inhibitor]: Oral (diet), Species: Rat, Strain/Sex: Sprague-Dawley/Female, Target Tissue: Type of Lesion: Liver: nodules, Dose [Carcinogen]: 200 mg/kg bw once in peanut oil after 4 wk on diet, study duration 20 wk, Promoter: Phenobarbital, 50-06-6
  outcome: 100%; 78%; 50% (p<0.05); 40% (p<0.05)

## CCOC(=O)/C=C(C)/C=C/C=C(C)/C=C/c1c(C)cc(O)c(C)c1C
Carcinogen: 7,12-DIMETHYLBENZ[A]ANTHRACENE, 57-97-6, Dose [Inhibitor]: 140 NMOL IN 0.2 ML ACETONE 2/WK (D 1 AND D 4 OF EACH WK) 1 HR BEFORE EACH PROMOTER APPLICATION STARTING 14 D AFTER CARCI, Route [Inhibitor]: DERMAL, Species: MOUSE, Strain/Sex: CD-1/FEMALE, Target Tissue: Type of Lesion: SKIN: PAPILLOMA, Dose [Carcinogen]: 0.2 UMOL IN 0.2 ML ACETONE ONCE, Promoter: 12-O-TETRADECANOYLPHORBOL-13-ACETATE, 16561-29-8
  tumour outcome (control, treated, inhibition, significance): 90%, 95%, -6%, not significant

## CC(C)=C1C=CC(O)CC1 (stereo not given)
Carcinogen: 7,12-DIMETHYLBENZ[A]ANTHRACENE, 57-97-6, Dose [Inhibitor]: 0, 12 NMOL PER REPEATED APPLICATION FOR 20 WK (STUDY DURATION: 20 WK), Route [Inhibitor]: DERMAL, Species: MOUSE, Strain/Sex: CD-1/FEMALE, Target Tissue: Type of Lesion: SKIN: TUMOR, Dose [Carcinogen]: 100 UG ONCE, Promoter: OKADAIC ACID, 78111-17-8
  tumour outcome (control, treated, inhibition, significance): 87%, 67%, 23%, not calculated

## CC[C@@H](C)[C@H](NC(=O)CN)C(=O)N[C@H](C(=O)N[C@@H](CCC(=O)O)C(=O)N[C@@H](CCC(N)=O)C(=O)N[C@H]1CSSC[C@H]2NC(=O)[C@H]([C@H](C)CC)NC(=O)[C@H](CO)NC(=O)[C@H]([C@H](C)O)NC(=O)[C@H](CSSC[C@H](NC(=O)[C@H](CC(C)C)NC(=O)[C@H](Cc3c[nH]cn3)NC(=O)[C@H](CCC(N)=O)NC(=O)[C@@H](NC(=O)[C@@H](NC(=O)[C@@H](N)Cc3ccccc3)C(C)C)C(N)=O)C(=O)NCC(=O)N[C@@H](CO)C(=O)N[C@@H](Cc3c[nH]cn3)C(=O)N[C@@H](CC(C)C)C(=O)N[C@@H](C(C)C)C(=O)N[C@@H](CCC(=O)O)C(=O)N[C@@H](C)C(=O)N[C@@H](CC(C)C)C(=O)N[C@@H](Cc3ccc(O)cc3)C(=O)N[C@@H](CC(C)C)C(=O)N[C@@H](C(C)C)C(=O)N[C@H](C(=O)NCC(=O)N[C@@H](CCC(=O)O)C(=O)N[C@@H](CCCNC(=N)N)C(=O)NCC(=O)N[C@@H](Cc3ccccc3)C(=O)N[C@@H](Cc3ccccc3)C(=O)N[C@@H](Cc3ccc(O)cc3)C(=O)N[C@H](C(=O)N3CCC[C@H]3C(=O)N[C@@H](CCCCN)C(=O)N[C@H](C(=O)O)[C@H](C)O)[C@H](C)O)CSSC[C@@H](C(=O)N[C@@H](CC(N)=O)C(=O)O)NC(=O)[C@H](Cc3ccc(O)cc3)NC(=O)[C@H](CC(N)=O)NC(=O)[C@H](CCC(=O)O)NC(=O)[C@H](CC(C)C)NC(=O)[C@H](CCC(N)=O)NC(=O)[C@H](Cc3ccc(O)cc3)NC(=O)[C@H](CC(C)C)NC(=O)[C@H](CO)NC2=O)NC1=O)C(C)C
Carcinogen: 7,12-DIMETHYLBENZ[A]ANTHRACENE, 57-97-6, Dose [Inhibitor]: 0, 10 I.U. FOR 7 D BEGINNING 3 D PRIOR TO CARCINOGEN DOSE (STUDY DURATION: 6 MO), Route [Inhibitor]: SUBCUTANEOUS, Species: RAT, Strain/Sex: SWISS/FEMALE, Target Tissue: Type of Lesion: MAMMARY GLAND: TUMOR, Dose [Carcinogen]: 20 MG IN 4 ML OLIVE OIL ONCE, Promoter: NONE USED
  tumour outcome (control, treated, inhibition, significance): 22/33 (67%), 6/32 (19%), 72%, not calculated
